The target of test [1] is T1, PAF Binding, dog platelets (Canis lupus familiaris, UniProt A0A8I3NSH0).
T1 construct: Washed platelets were prepared by resuspending the platelet pellet once with PBS containing 1 mM EDTA; from tissue; host or cells: washed platelets from dog blood
T1 sequence (A0A8I3NSH0 1-343): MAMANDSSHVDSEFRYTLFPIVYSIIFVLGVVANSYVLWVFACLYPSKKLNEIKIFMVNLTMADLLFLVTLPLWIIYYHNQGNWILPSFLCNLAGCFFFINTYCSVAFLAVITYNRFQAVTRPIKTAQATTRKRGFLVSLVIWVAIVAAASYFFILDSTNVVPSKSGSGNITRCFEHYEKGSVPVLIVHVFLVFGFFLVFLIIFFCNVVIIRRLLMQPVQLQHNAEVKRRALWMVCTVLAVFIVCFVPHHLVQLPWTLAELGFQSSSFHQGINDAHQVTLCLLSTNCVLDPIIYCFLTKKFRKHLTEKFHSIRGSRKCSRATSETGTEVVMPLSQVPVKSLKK
The test is described as follows: PAF Binding Assay (inhibition of 3H-PAF binding to washed dog platelets). Particulars: dog platelets, 3H-PAF, 10 minutes at room temperature; read-out: Inhib of PAF Binding IC50. An outline of the steps:
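Washed dog platelets (2×10^7 per tube, in 0.1% BSA-PBS) incubated 10 min at room temperature with 3H-PAF and test analogs. Bound ligand separated by 1 min centrifugation through silicone oil; platelet pellet radioactivity counted by liquid scintillation.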

The subject of test [2] is PAF-Induced Bronchoconstriction. The experiment in a line: PAF Induced Bronchoconstriction Assay. The test is classed as in vivo, guinea pig. Particulars: for inhibition in vivo at 50 mg/kg: Cavia porcellus, po, 50 mg/Kg p.o., 2-hour pretreatment, read-out: Percent Inhib. of PAF-Induced Bronchoconstriction, 50 mg/Kg p.o.; for Percent Inhib. of PAF-Induced Bronchoconstriction, mg/Kg i.v.: i.v. (dose not given), 1 minute pretreatment, PAF 1.0 μg/kg i.v. An outline of the steps: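 Male Hartley guinea pigs, urethane-anesthetized (2 g/kg i.p.), ventilated, with succinylcholine 1.2 mg/kg i.v. and propranolol 0.1 mg/kg i.v. pretreatment. Compound given i.v. 1 min or by oral gavage 2 h before i.v. PAF challenge at 1.0 μg/kg. Peak tracheal pressure rise over baseline compared with control mean gives % inhibition.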

In test [3] the test system is PAF-Induced Platelet Count Decrease. The test is described as follows: PAF Induced Platelet Count Decrease. The test is classed as in vivo, guinea pig. To be noted: for inhibition in vivo at 3 mg/kg: Cavia porcellus, Platelet, read-out: Percent Inhib. of PAF-Induced Platelet Count Decrease, 3 mg/Kg; for inhibition in vivo at 3 mg/kg / Percent Inhib. of PAF-Induced Platelet Count Decrease, 3 mg/Kg: 3 mg/Kg (route not given). The protocol: PAF Induced Platelet Count Decrease
Male Hartley guinea pigs weighing between 500 and 900 grams were fed standard guinea pig chow and tap water ad libitum. PAF was solubilized in ethanol and stored as a 2 mM stock solution at -70° C. The stock solutuion of PAF was diluted to 1 pM in Tris buffer pH 7.4 and 0.1% BSA for all experiments.
(a) Intravenous Procedure
Guinea pigs were anesthetized with urethane (1.6 g/kg, i.p.). A catheter (PE50) was introduced into the right carotid artery for withdrawing blood. A second catheter PE10) was introduced into the jugular vein for injecting drugs and for administering the PAF challenge (75 ng/kg, i.v.). A control blood sample was obtained and platelets were counted in a whole blood platelet analyzer. PAF was then given and blood samples were taken 15, 30, and 60 seconds after the challenge for platelet counts. Fifteen minutes later, selected concentrations of the test compound were solubilized in DMSO and injected intravenously into a group of 4-6 animals. Only one concentration of antagonist was used in each animal group. Fifteen minutes after drug injection, blood smaples were taken before and 15, 30, and 60 sec after the PAF challenge, and analyzed for platelet number.
Animals were anesthetized with sodium pentobarbital (35 mg/kg. i.p.) and the caritoid artery and jugular vein were cannulated as described above. The cannulae were exteriorized at the base of the neck and the animals were allowed to recover. At least 18 hours after surgery, conscious unrestrained guinea pigs were used in the experiment. The animals were challenged two time with PAF (120 ng/kg. i.v.); the first to establish a consistent response to PAF and the second to serve as a control for the PAF challenge. Blood samples were taken before and 15, 30, and 45 seconds after PAF challenge and platelets were counted. Thirty minutes after the control PAF challenge, the animal were orally dosed with either gum acacia or the test compound. Animals were then challenged with PAF at 1, 3, 5, and 24 hours after the administration of the drug.
Data Analysis and Statistics
The % change, i.e., the difference in platelet number before and after PAF challenge was calculated by: [formula]
Statistical significance (p<0.05) of the difference between the mean PAF control and mean drug treated activity was determined with paried Students's t-test.

The structures appear in SMILES notation.

In general, IC50 refers to the concentration that gives 50% inhibition.

As for `COc1cccc(/C(=C/C=C/C(=O)NCCCCc2cccnc2)c2ccccc2)c1` [(2E,4E)-5-(3-Methoxyphenyl)-5-phenyl-N-[4-(3-pyridinyl)butyl]-2,4-pentadienamide], in test [1], the IC50 came out at 20 nM. For the same compound, the inhibition in vivo at 50 mg/kg in test [2] turned out to be 13 ± 18%. The inhibition in vivo at 3 mg/kg in test [3] turned out to be 40%.

As for `COc1cccc(/C(=C\C=C\C(=O)NCCCCc2cccnc2)c2cccc(F)c2)c1` [(2E,4E)-5-(3-fluorophenyl)-5-(3-methoxyphenyl)-N-[4-(3-pyridinyl)butyl]-2,4-pentadienamide], the IC50 in test [1] turned out to be 25 nM. Further, in test [2], the inhibition in vivo at 50 mg/kg was determined as 25 ± 14% and the “Percent Inhib. of PAF-Induced Bronchoconstriction, mg/Kg i.v.” value amounted to 88 ± 4%. For the same compound, the “Percent Inhib. of PAF-Induced Platelet Count Decrease, 3 mg/Kg” value in test [3] was “inactive”.

On to `COc1cccc(/C(=C/C=C/C(=O)NCCCCc2cccnc2)c2cccc(F)c2)c1` [(2E,4Z)-5-(3-fluorophenyl)-5-(3-methoxyphenyl)-N-[4-(3-pyridinyl)butyl]-2,4-pentadienamide], for which, in test [1], the IC50 is 40 nM. In addition, in test [2], the inhibition in vivo at 50 mg/kg worked out at 1 ± 8% and the “Percent Inhib. of PAF-Induced Bronchoconstriction, mg/Kg i.v.” value is given as 90 ± 5%. The “Percent Inhib. of PAF-Induced Platelet Count Decrease, 3 mg/Kg (1 min)” value in test [3] (3 mg/Kg, (1 min)) was 67%.

As for `COc1cccc(/C(=C\C=C\C(=O)NCCCCc2cccnc2)c2ccccc2)c1` [(2E,4Z)-5-(3-methoxyphenyl)-5-phenyl-N-[4-(3-pyridinyl)butyl]-2,4-pentadienamide], the IC50 in test [1] came out at 35 nM. Moreover, the inhibition in vivo at 50 mg/kg in test [2] was 10 ± 10%. In addition, the “Percent Inhib. of PAF-Induced Platelet Count Decrease, 3 mg/Kg” value in test [3] is “inactive”.

For `O=C(/C=C/C=C(c1ccccc1)c1ccccc1)NCCCCc1cccnc1` [(E)-5,5-Diphenyl-N-[4-(3-pyridinyl)butyl]-2,4-pentadienamide], the IC50 in test [1] was 55 nM. Moreover, in test [2], the inhibition in vivo at 50 mg/kg worked out at 12 ± 1% and the “Percent Inhib. of PAF-Induced Bronchoconstriction, mg/Kg i.v.” value is 35 ± 15%. In addition, in test [3], the inhibition in vivo at 3 mg/kg turned out to be 14%.

For the compound `COc1cccc(C(=C/C=C/C(=O)NCCCCc2cccnc2)c2cccc(OC)c2)c1` [(E)-5,5-bis (3-methoxyphenyl)-N-[4-(3-pyridinyl)butyl]-2,4-pentadienamide], the IC50 in test [1] came out at 2 nM. Further, in test [2], the inhibition in vivo at 50 mg/kg stood at 31 ± 11% and the “Percent Inhib. of PAF-Induced Bronchoconstriction, mg/Kg i.v.” value worked out at 69 ± 7%. Further, in test [3], the “Percent Inhib. of PAF-Induced Platelet Count Decrease, 30 mg/Kg p.o.” value worked out at 48% and the inhibition in vivo at 3 mg/kg came out at 75%.

With `O=C(/C=C/C=C(c1cccc(F)c1)c1cccc(F)c1)NCCCCc1cccnc1` [(E)-5,5-bis(3-Fluorophenyl)-N-[4-(3-pyridinyl)butyl]-2,4-pentadienamide], in test [1], the IC50 was determined as 20 nM. In test [2], the inhibition in vivo at 50 mg/kg was 37 ± 11% and the “Percent Inhib. of PAF-Induced Bronchoconstriction, mg/Kg i.v.” value was 72 ± 16%. Further, in test [3], the “Percent Inhib. of PAF-Induced Platelet Count Decrease, 30 mg/Kg p.o.” value worked out at 58% and the inhibition in vivo at 3 mg/kg was determined as 61%.

For `COc1ccc(C(=C/C=C/C(=O)NCCCCc2cccnc2)c2ccc(OC)cc2)cc1` [(E)-5,5-bis(4-Methoxyphenyl)-N-[4-(3-pyridinyl)butyl]-2,4-pentadienamide], the IC50 in test [1] was found to be 25 nM. For the same compound, in test [2], the inhibition in vivo at 50 mg/kg came out at 82 ± 12% and the “Percent Inhib. of PAF-Induced Bronchoconstriction, mg/Kg i.v.” value worked out at 92 ± 3%. For the same compound, in test [3], the “Percent Inhib. of PAF-Induced Platelet Count Decrease, 30 mg/Kg p.o.” value is given as 45% and the inhibition in vivo at 3 mg/kg turned out to be 40%.

Regarding `O=C(/C=C/C=C(c1ccc(Cl)cc1)c1ccc(Cl)cc1)NCCCCc1cccnc1` [(E)-5,5-bis(4-chlorophenyl)-N-[4-(3-pyridinyl)butyl]-2,4-pentadienamide], in test [1], the IC50 was 60 nM. Also, in test [2], the inhibition in vivo at 50 mg/kg was found to be 63 ± 10% and the “Percent Inhib. of PAF-Induced Bronchoconstriction, mg/Kg i.v.” value is recorded as 95 ± 2%. Further, the inhibition in vivo at 3 mg/kg in test [3] worked out at 0%.

For `O=C(/C=C/C=C(c1ccc(F)cc1)c1ccc(F)cc1)NCCCCc1cccnc1` [(E)-5,5-bis(4-fluorophenyl)-N-[4-(3-pyridinyl)butyl]-2,4-pentadienamide], in test [1], the IC50 worked out at 40 nM. In test [2], the inhibition in vivo at 50 mg/kg was 97 ± 1% and the “Percent Inhib. of PAF-Induced Bronchoconstriction, mg/Kg i.v.” value worked out at 91 ± 3%. The inhibition in vivo at 3 mg/kg in test [3] is 18%.

For the compound `O=C(/C=C/C=C(c1ccccc1C(F)(F)F)c1ccccc1C(F)(F)F)NCCCCc1cccnc1` [(E)-5,5-bis[2-(Trifluoromethyl)phenyl]-N-[4-(3-pyridinyl)butyl]-2,4-pentadienamide], in test [1], the IC50 was 80 nM. For the same compound, the “Percent Inhib. of PAF-Induced Bronchoconstriction, mg/Kg i.v.” value in test [2] turned out to be 6 ± 10%. Besides, in test [3], the inhibition in vivo at 3 mg/kg is 0%.

Consider `O=C(/C=C/C=C(c1cccc(C(F)(F)F)c1)c1cccc(C(F)(F)F)c1)NCCCCc1cccnc1` [(E)-5,5-bis[3-(trifluoromethyl)phenyl]-N-[4-(3-pyridinyl)butyl]-2,4-pentadienamide], for which, in test [1], the half-inhibitory concentration (IC50) came out at 150 nM. Also, in test [2], the “Percent Inhib. of PAF-Induced Bronchoconstriction, mg/Kg i.v.” value was “inactive”. In addition, the inhibition in vivo at 3 mg/kg in test [3] was 83%.

Take `COc1cccc(C(=C/C=C/C(=O)N[C@H](C)CCCc2cccnc2)c2cccc(OC)c2)c1` [[R-(E)]-5,5-bis (3-methoxyphenyl)-N-[1-methyl-4-(3-pyridinyl)butyl]-2,4-pentadienamide]: the IC50 in test [1] was 35 nM. Also, in test [2], the inhibition in vivo at 50 mg/kg was found to be 87 ± 8% and the “Percent Inhib. of PAF-Induced Bronchoconstriction, mg/Kg i.v.” value was 87 ± 4%. Further, the inhibition in vivo at 3 mg/kg in test [3] amounted to 31%.

For the compound `C[C@@H](CCCc1cccnc1)NC(=O)/C=C/C=C(c1cccc(F)c1)c1cccc(F)c1` [[S-(E)]-5,5-bis(3-fluorophenyl)-N-[1-methyl-4-(3-pyridinyl)butyl]-2,4-pentadienamide], in test [2], the inhibition in vivo at 50 mg/kg was determined as 46 ± 8% and the “Percent Inhib. of PAF-Induced Bronchoconstriction, mg/Kg i.v.” value is reported as 34 ± 7%. The inhibition in vivo at 3 mg/kg in test [3] came out at 19%.

Take `COc1cccc(C(=C/C=C/C(=O)N[C@@H](C)CCCc2cccnc2)c2cccc(OC)c2)c1` [[S-(E)]-5,5-bis(3-methoxyphenyl)-N-[1-methyl-4-(3-pyridinyl)butyl]-2,4-pentadienamide]: the IC50 in test [1] was found to be 300 nM. Moreover, in test [2], the inhibition in vivo at 50 mg/kg is 10 ± 5% and the “Percent Inhib. of PAF-Induced Bronchoconstriction, mg/Kg i.v.” value was 36 ± 4%. Further, the inhibition in vivo at 3 mg/kg in test [3] was 10%.

For `COc1ccc(C(=C/C=C/C(=O)N[C@@H](C)CCCc2cccnc2)c2ccc(OC)cc2)cc1` [[S-(E)]-5,5-bis(4-Methoxyphenyl)-N-[1-methyl-4-(3-pyridinyl)butyl]-2,4-pentadienamide], in test [2], the inhibition in vivo at 50 mg/kg came out at 90 ± 6% and the “Percent Inhib. of PAF-Induced Bronchoconstriction, mg/Kg i.v.” value worked out at 42 ± 13%. Also, in test [3], the inhibition in vivo at 3 mg/kg worked out at 42%.
